In patent publication US8541476B2, “Compounds for treatment of malignant tumors” (The Trustees of the University of Pennsylvania, priority 2007, dated 2013):
“Also recorded” adds a separate entry of the source.

Key:
[1] = NS-123 toxicity evaluation in nu/nu mice; assay type: in vivo
Protocol: Female nu/nu (nude) mice (6-8 weeks old; Charles River, Wilmington, Mass.) were maintained at the WFUSM animal facility under conditions approved by the Animal Care and Use Committee. NS-123 in DMSO was mixed with 30% propylene glycol (DMSO concentration<1%) and administered via an i.p. injection at a dose of 50 mg/kg to three mice on three consecutive days. The mice were monitored over 30 days for signs of drug-related toxicity, lethality, and weight loss. Mice were euthanized by CO2 asphyxiation and necropsy was performed by a veterinary pathologist. The heart, lung, liver, spleen, kidney, brain, salivary gland, gastrointestinal tract, ovary, uterus, adrenal gland, and thyroid gland were preserved in 10% neutral buffered formalin for at least 48 hours. The tissues were embedded in paraffin, processed routinely for histology, cut at 4-6 microns, stained with hematoxylin and eosin and examined by light microscopy.
To test this hypothesis, 50 mg/kg (i.p.) was administered to nude mice for 3 consecutive days. Clinical signs of drug toxicity and lethality were not observed over the following 30 days.

[2] = test system: γ-H2AX, P-CHK2, P-ATM, P-DNA-PKcs in U251 cells; assay: Immunoblotting of dsDNA damage-dependent signaling after IR; assay type: cell-based, human; conditions: U251, 30 μM 4 hours prior to IR, 6 hours after IR
Protocol: Following treatments, whole cell and nuclear extracts were prepared. Equal lysate volumes were loaded on 15% and 12% SDS-PAGE gels to assay for γ-H2AX and P-CHK2 proteins, respectively. To assay for P-ATM and P-DNA-PKcs protein, 30-50 μg of nuclear protein were diluted with an equal volume of 2×SDS and resolved with 6% SDS-PAGE gels. Proteins were transferred to polyvinylidene difluoride (PVDF) membranes and then incubated with either anti-γ-H2AX antibody (1:5000; Upstate, Charlottesville, Va.), anti-P-CHK2 antibody (1:1000; Cell Signaling, Beverly, Mass.), anti-phospho-ATM (pSer^1981) antibody (1:300 Calbiomchem, San Diego, Calif.), or anti-phospho-DNA-PKcs (T2609) antibody (1:500; Abcam, Cambridge, Mass.). To confirm equivalent loading and protein transfer, membranes were probed with mouse anti-human β-actin monoclonal antibody (Sigma) or anti-DNA-PKcs monoclonal antibody (25-4 at 1:5000; NeoMarkers, Fremont, Calif.). All membranes were then incubated with horseradish peroxidase-conjugated anti-mouse or anti-rabbit secondary antibodies (Santa Cruz Biotechnology). Immunoreactive bands were detected using ECL Plus chemiluminescence (Amersham Biosciences).
The levels of γ-H2AX, P-CHK2, P-ATM, and P-DNA-PKcs were assayed in U251 cells by immunoblotting at various time points after IR. Cells were treated with DMSO (control) or 30 μM NS-123 for 4 hours prior to IR. […]

U251 glioma cell line = assay: Chemical library radiosensitizer screen (MTS assay, paired plates 4 Gy / unirradiated); assay type: cell-based, human; conditions: U251, 8 hours at 2.5 μM, MTS four days later
Protocol: Six hundred U251 cells were plated per well in 96 well plates. Cells in each well were then treated with a different compound from the Nanosyn library for 8 hours at 2.5 μM concentration. Treatment was performed with paired 96-well plates; one plate was exposed to 4 Gy and the other plate was an unirradiated control. One hour after irradiation, the medium was replaced with fresh medium alone. Four days later, the MTS assay was used to evaluate cell survival. Absorbance was measured at 490 nm with a microplate reader (Sprectramax, Molecular Devices, Sunnyvale, Calif.). Radiosensitivity factors (RSF) were calculated according to the following formula for each compound tested with the assay:
[formula] Survival Assays
The small chemical compound chemical library (Nanosyn, Inc.) was replicated in a 96-well format and compounds were dissolved in DMSO at a concentration of […]. Using the U251 glioma cell line, the radiosensitizing capability of 870 compounds was initially assayed within the library. The assay was optimized in terms of the number of cells, radiation dose used, and the number of days incubated so that a decrease in survival could be assessed. […] The structure of three novel radiosensitizing compounds is depicted in FIG. 1B.

[3] = test system: Nontransformed human astrocytes (NHA); assay: Modified MTS survival assay on normal human astrocytes after IR; assay type: cell-based; conditions: 5 μM, 8 hours or 12 hours pretreatment, versus DMSO
Protocol: Clonogenic survival assays were performed as described by Koumenis, et al., 2002, (Mol. Cell Biol. 22:7405-16), which reference is incorporated herein in its entirety. U251, HT-29, or A549 cells were plated at different densities in triplicate, treated with NS-123 or DMSO (alone) and irradiated 4, 8, or 12 hours later with a range of doses using ^137Cs γ-rays at a dose rate of ˜4 Gy/minute (min). One hour after irradiation, the medium was replaced with fresh medium without NS-123 or DMSO. The cells were fixed 7-14 days after IR and stained with crystal violet. Colonies greater than 50 cells were then counted and normalized against the non-irradiated controls for each treatment. […] NHA cells were plated in 24-well plates in quadruplicate at equal density, treated with equal volumes of NS-123 or DMSO (alone) and irradiated as described above. One hour after irradiation, the medium was replaced with fresh ABM. Five days later, the MTS assay was used to evaluate cell survival as above.
The objective of any combination of therapeutic agents is to achieve an improved therapeutic result, which is a function both of tumor response and of normal tissue damage. No improvement in the therapeutic result of IR is gained utilizing a drug that increases the sensitivity of both tumor and normal cells to the same extent. […]

CCC(=O)c1ccc(Br)c([N+](=O)[O-])c1 [NS-123, 4′-bromo-3′-nitropropiophenone]
gross and histopathological examination ([1]; female, nu/nu (nude), mouse, in vivo, ip, 50 mg/kg): did not reveal any evidence suggestive of NS-123 associated toxicity | clinical signs of drug toxicity and lethality ([1]; nude mice, 50 mg/kg i.p. 3 consecutive days, 30 days observation): not observed | levels of γ-H2AX, P-CHK2, P-DNA-PKcs and P-ATM [2]: substantially higher levels | average Radiosensitivity factor (RSF) (U251 glioma cell line): 4.62 | radiosensitization of normal human glial cells [3]: no significant increase in radiosensitization; also recorded: does not radiosensitize
